Reference: ChEMBL document CHEMBL1144750, “Scaffold oriented synthesis. Part 2: Design, synthesis and biological evaluation of pyrimido-diazepines as receptor tyrosine kinase inhibitors” (Bioorg Med Chem Lett, 2008)
pIC50: −log10 of the molar value.

Molecular target: T1, Vascular endothelial growth factor receptor 2 (Homo sapiens, UniProt P35968)
Assay: Inhibition of KDR in presence of 10 uM ATP

T1 sequence (P35968 whole entry): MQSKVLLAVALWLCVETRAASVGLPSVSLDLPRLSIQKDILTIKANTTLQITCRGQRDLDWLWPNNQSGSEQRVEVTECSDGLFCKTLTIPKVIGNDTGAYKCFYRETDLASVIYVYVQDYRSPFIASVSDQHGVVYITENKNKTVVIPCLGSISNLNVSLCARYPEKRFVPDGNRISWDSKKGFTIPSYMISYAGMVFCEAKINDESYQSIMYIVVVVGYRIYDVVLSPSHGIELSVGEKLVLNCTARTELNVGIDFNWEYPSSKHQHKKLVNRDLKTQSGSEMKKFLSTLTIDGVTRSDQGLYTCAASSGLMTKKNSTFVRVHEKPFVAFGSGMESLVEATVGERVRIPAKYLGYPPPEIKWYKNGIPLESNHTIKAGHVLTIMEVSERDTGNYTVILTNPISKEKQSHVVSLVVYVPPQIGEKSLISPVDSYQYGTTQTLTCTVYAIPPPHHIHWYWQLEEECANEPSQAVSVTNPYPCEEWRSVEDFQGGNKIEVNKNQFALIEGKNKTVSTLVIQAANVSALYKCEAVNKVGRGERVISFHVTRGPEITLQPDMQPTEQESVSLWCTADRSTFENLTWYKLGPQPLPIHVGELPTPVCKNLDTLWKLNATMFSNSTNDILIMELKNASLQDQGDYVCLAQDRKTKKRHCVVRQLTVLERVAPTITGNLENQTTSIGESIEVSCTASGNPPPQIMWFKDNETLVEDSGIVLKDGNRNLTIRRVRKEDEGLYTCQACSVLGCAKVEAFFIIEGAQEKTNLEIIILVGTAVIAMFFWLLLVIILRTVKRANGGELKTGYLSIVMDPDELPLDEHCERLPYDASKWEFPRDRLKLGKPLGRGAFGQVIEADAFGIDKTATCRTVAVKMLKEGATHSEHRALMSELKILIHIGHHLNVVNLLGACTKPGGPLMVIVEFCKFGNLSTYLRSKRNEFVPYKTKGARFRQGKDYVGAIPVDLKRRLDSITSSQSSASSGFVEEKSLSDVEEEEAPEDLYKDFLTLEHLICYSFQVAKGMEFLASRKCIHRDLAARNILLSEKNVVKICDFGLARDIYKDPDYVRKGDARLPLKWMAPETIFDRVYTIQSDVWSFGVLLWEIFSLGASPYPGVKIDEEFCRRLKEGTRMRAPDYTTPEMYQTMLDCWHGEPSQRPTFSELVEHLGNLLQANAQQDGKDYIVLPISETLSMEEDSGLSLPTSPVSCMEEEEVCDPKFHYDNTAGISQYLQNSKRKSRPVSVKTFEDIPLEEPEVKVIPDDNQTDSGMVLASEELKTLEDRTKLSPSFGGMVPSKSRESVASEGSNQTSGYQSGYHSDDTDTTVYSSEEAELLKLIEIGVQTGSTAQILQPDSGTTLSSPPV

In order of falling pIC50:
1. Nc1ncnc2c1N=C(c1cccc(Cl)c1)CCN2  6.22
2. Nc1ncnc2c1N=C(c1ccc(Cl)cc1)CCN2  5.52
3. Cc1cccc(C2=Nc3c(N)ncnc3NCC2)c1  5.52
4. Nc1ncnc2c1N=C(c1ccccc1)CCN2  5.52
5. Cc1ccc(C2=Nc3c(N)ncnc3NCC2)cc1  5.40
6. Nc1nc(N)c2c(n1)NCCC(c1ccc(Cl)cc1)=N2  5.05
7. Nc1nc(N)c2c(n1)NCCC(c1cccc(Cl)c1)=N2  4.68
8. Nc1nc(N)c2c(n1)NCCC(c1ccccc1)=N2  4.46

Molecular target: Serine/threonine-protein kinase PLK1 (Homo sapiens, UniProt P53350)
Assay: Inhibition of Plk1

Chain of Serine/threonine-protein kinase PLK1 (P53350 whole entry): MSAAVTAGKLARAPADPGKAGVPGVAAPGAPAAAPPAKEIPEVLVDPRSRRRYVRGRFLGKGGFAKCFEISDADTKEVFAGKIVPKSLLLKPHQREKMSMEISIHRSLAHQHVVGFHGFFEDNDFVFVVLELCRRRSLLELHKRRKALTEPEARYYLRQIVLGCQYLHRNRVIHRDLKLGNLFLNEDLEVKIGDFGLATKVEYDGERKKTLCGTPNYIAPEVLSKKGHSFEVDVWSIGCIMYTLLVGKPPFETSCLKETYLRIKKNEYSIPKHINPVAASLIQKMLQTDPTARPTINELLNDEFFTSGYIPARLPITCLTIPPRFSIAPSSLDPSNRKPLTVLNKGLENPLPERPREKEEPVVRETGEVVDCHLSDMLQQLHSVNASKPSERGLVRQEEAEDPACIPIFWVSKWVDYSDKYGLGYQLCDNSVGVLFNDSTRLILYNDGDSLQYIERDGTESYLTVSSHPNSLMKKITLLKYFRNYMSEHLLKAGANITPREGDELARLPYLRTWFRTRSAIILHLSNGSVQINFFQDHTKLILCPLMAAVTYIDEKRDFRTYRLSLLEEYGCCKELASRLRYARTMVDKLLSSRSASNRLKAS

Nc1ncnc2c1N=C(c1ccc(Cl)cc1)CCN2 and Cc1ccc(C2=Nc3c(N)ncnc3NCC2)cc1 cannot be ordered by pIC50: less than 4.00 for the first, less than 4.00 for the second.

Nc1nc(N)c2c(n1)NCCC(c1ccc(Cl)cc1)=N2 and Nc1nc(N)c2c(n1)NCCC(c1cccc(Cl)c1)=N2 cannot be ordered by pIC50: less than 4.00 for the first, less than 4.00 for the second.

First: Nc1ncnc2c1N=C(c1cccc(Cl)c1)CCN2
Second: Cc1cccc(C2=Nc3c(N)ncnc3NCC2)c1
The pIC50 of the first is lower: less than 4.00 for the first, 4.30 for the second.

Nc1nc(N)c2c(n1)NCCC(c1ccccc1)=N2 and Nc1ncnc2c1N=C(c1ccccc1)CCN2 cannot be ordered by pIC50: less than 4.00 for the first, less than 4.00 for the second.

Molecular target: Serine/threonine-protein kinase PAK 4 (Homo sapiens, UniProt O96013)
Assay: Inhibition of Pak4

Chain of Serine/threonine-protein kinase PAK 4 (O96013 whole entry): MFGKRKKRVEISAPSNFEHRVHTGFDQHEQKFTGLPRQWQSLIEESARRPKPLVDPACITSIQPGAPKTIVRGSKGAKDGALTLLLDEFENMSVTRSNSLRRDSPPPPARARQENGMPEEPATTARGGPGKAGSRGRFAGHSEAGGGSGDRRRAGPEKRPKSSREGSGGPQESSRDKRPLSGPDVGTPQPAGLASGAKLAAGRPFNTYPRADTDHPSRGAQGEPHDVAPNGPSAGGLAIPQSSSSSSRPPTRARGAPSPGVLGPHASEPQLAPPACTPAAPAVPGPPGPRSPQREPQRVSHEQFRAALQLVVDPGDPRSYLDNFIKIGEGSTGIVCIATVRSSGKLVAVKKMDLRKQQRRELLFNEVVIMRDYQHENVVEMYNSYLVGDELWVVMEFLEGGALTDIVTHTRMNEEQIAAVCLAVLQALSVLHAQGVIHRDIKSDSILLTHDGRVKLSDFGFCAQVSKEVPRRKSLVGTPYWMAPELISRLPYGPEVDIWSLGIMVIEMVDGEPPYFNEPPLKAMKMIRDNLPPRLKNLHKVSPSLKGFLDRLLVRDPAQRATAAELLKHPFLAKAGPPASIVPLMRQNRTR

Nc1ncnc2c1N=C(c1ccc(Cl)cc1)CCN2 and Cc1ccc(C2=Nc3c(N)ncnc3NCC2)cc1 cannot be ordered by pIC50: less than 4.00 for the first, less than 4.00 for the second.

Nc1nc(N)c2c(n1)NCCC(c1ccc(Cl)cc1)=N2 and Nc1nc(N)c2c(n1)NCCC(c1cccc(Cl)c1)=N2 cannot be ordered by pIC50: less than 4.00 for the first, less than 4.00 for the second.

Nc1ncnc2c1N=C(c1cccc(Cl)c1)CCN2 and Cc1cccc(C2=Nc3c(N)ncnc3NCC2)c1 cannot be ordered by pIC50: less than 4.00 for the first, less than 4.00 for the second.

Nc1nc(N)c2c(n1)NCCC(c1ccccc1)=N2 and Nc1ncnc2c1N=C(c1ccccc1)CCN2 cannot be ordered by pIC50: less than 4.00 for the first, less than 4.00 for the second.

System: not listed separately
Assay: Inhibition of CK2

Nc1ncnc2c1N=C(c1ccc(Cl)cc1)CCN2 and Cc1ccc(C2=Nc3c(N)ncnc3NCC2)cc1 cannot be ordered by pIC50: less than 4.00 for the first, less than 4.00 for the second.

Nc1nc(N)c2c(n1)NCCC(c1ccc(Cl)cc1)=N2 and Nc1nc(N)c2c(n1)NCCC(c1ccccc1)=N2 cannot be ordered by pIC50: less than 4.00 for the first, less than 4.00 for the second.

Compared with Cc1cccc(C2=Nc3c(N)ncnc3NCC2)c1, Nc1ncnc2c1N=C(c1ccccc1)CCN2 is 0.48 log units higher in pIC50: 4.92 for the first, 5.40 for the second.

System: not listed separately
Assay: Inhibition of CK2 at 100 uM

In the case of Nc1ncnc2c1N=C(c1cccc(Cl)c1)CCN2, the inhibition was 64%.

Molecular target: RAC-alpha serine/threonine-protein kinase (Homo sapiens, UniProt P31749)
Assay: Inhibition of Akt1

Chain of RAC-alpha serine/threonine-protein kinase (P31749 whole entry): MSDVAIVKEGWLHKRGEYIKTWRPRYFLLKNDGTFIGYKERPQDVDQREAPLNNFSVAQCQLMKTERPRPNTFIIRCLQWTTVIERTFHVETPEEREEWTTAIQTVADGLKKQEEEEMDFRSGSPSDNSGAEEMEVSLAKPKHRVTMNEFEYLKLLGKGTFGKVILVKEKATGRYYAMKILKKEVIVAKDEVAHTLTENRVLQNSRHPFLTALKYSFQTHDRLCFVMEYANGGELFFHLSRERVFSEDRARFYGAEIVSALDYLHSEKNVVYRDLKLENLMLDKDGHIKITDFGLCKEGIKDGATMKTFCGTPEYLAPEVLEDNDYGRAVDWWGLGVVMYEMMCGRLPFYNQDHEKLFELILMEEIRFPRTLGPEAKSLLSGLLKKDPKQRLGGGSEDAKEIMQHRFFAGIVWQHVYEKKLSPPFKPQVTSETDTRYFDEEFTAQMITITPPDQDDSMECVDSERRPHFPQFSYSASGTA

Nc1ncnc2c1N=C(c1ccc(Cl)cc1)CCN2 and Cc1ccc(C2=Nc3c(N)ncnc3NCC2)cc1 cannot be ordered by pIC50: less than 4.00 for the first, less than 4.00 for the second.

Nc1nc(N)c2c(n1)NCCC(c1ccc(Cl)cc1)=N2 and Nc1nc(N)c2c(n1)NCCC(c1cccc(Cl)c1)=N2 cannot be ordered by pIC50: less than 4.00 for the first, less than 4.00 for the second.

Nc1ncnc2c1N=C(c1cccc(Cl)c1)CCN2 and Cc1cccc(C2=Nc3c(N)ncnc3NCC2)c1 cannot be ordered by pIC50: less than 4.00 for the first, less than 4.00 for the second.

First: Nc1nc(N)c2c(n1)NCCC(c1ccccc1)=N2
Second: Nc1ncnc2c1N=C(c1ccccc1)CCN2
The pIC50 of the first is lower: less than 4.00 for the first, 4.04 for the second. The second is the more potent here.

Molecular target: T1, Vascular endothelial growth factor receptor 2
Assay: Inhibition of KDR in presence of 1 mM ATP

In order of rising pIC50:
1. Nc1nc(N)c2c(n1)NCCC(c1ccc(NC(=O)Nc3ccccc3)cc1)=N2  5.54
2. Nc1ncnc2c1N=C(c1ccc(NC(=O)Nc3ccccc3)cc1)CCN2  6.02
3. Nc1ncnc2c1N=C(c1cccc(NC(=O)Nc3ccccc3)c1)CCN2  6.05
4. Nc1ncnc2c1N=C(c1ccc(NC(=O)Nc3ccc(C(F)(F)F)cc3)cc1)CCN2  6.96
5. Cc1ccc(F)c(NC(=O)Nc2ccc(C3=Nc4c(N)ncnc4NCC3)cc2)c1  7.19
6. Nc1ncnc2c1N=C(c1ccc(NC(=O)Nc3cccc(C(F)(F)F)c3F)cc1)CCN2  7.31
7. Nc1ncnc2c1N=C(c1ccc(NC(=O)Nc3cccc(Cl)c3)cc1)CCN2  7.72
8. Nc1ncnc2c1N=C(c1ccc(NC(=O)Nc3ccc(Cl)c(C(F)(F)F)c3)cc1)CCN2  8.22
9. Nc1ncnc2c1N=C(c1ccc(NC(=O)Nc3ccc(F)c(C(F)(F)F)c3)cc1)CCN2  8.30
10. Nc1ncnc2c1N=C(c1ccc(NC(=O)Nc3cc(C(F)(F)F)ccc3F)cc1)CCN2  8.40
11. Nc1ncnc2c1N=C(c1ccc(NC(=O)Nc3cccc(C(F)(F)F)c3)cc1)CCN2  8.52

Molecular target: Vascular endothelial growth factor receptor 2 (Mus musculus, UniProt P35918)
Assay: Inhibition of VEGF-induced KDR phosphorylation in mouse 3T3 cells
Format: cell-based, NIH3T3

Chain of Vascular endothelial growth factor receptor 2 (Mus musculus, UniProt P35918) (P35918 whole entry): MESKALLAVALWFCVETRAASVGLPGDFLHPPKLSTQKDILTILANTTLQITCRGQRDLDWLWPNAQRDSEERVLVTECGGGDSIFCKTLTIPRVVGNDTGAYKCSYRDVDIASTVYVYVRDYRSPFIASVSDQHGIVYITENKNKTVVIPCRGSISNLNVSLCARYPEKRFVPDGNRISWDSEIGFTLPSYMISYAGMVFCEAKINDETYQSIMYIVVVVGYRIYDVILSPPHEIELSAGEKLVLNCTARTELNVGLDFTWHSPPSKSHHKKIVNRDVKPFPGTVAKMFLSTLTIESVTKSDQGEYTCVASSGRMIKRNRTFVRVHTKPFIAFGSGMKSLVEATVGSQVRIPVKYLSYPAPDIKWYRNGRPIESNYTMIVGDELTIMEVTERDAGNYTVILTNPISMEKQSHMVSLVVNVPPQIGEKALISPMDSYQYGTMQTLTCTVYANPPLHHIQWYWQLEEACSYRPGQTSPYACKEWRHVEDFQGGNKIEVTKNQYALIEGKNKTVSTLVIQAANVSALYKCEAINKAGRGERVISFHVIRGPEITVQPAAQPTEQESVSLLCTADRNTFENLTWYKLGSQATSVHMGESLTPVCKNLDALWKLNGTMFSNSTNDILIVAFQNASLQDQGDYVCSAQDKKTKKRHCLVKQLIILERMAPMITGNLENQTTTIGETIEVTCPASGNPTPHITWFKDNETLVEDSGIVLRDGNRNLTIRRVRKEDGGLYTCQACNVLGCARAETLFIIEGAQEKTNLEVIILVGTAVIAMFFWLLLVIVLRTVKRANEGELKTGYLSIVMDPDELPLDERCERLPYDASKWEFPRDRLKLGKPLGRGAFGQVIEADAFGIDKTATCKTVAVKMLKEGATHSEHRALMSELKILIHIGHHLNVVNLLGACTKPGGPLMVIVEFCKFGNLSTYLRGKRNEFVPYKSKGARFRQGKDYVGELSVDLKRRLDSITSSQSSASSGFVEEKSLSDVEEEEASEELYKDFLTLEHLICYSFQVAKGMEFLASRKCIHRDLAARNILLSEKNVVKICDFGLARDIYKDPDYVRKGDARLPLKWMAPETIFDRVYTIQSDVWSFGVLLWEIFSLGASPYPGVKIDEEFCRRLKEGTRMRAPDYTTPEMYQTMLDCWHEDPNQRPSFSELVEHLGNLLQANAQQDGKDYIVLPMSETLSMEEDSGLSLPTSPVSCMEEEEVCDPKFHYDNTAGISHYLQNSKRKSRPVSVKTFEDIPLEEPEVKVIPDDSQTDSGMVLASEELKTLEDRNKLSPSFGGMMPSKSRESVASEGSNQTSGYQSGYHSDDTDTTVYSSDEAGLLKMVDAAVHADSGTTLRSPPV

In order of falling pIC50:
1. Nc1ncnc2c1N=C(c1ccc(NC(=O)Nc3cccc(C(F)(F)F)c3)cc1)CCN2  7.89
2. Nc1ncnc2c1N=C(c1ccc(NC(=O)Nc3ccc(Cl)c(C(F)(F)F)c3)cc1)CCN2  7.31
3. Nc1ncnc2c1N=C(c1ccc(NC(=O)Nc3cccc(Cl)c3)cc1)CCN2  7.30
4. Cc1ccc(C2=Nc3c(N)ncnc3NCC2)cc1NC(=O)Nc1cccc(C(F)(F)F)c1  7.28
5. Nc1ncnc2c1N=C(c1ccc(NC(=O)Nc3cc(C(F)(F)F)ccc3F)cc1)CCN2  6.92
6. Cc1ccc(F)c(NC(=O)Nc2ccc(C3=Nc4c(N)ncnc4NCC3)cc2)c1  6.51
7. Nc1ncnc2c1N=C(c1ccc(NC(=O)Nc3ccc(F)c(C(F)(F)F)c3)cc1)CCN2  6.46
8. Nc1ncnc2c1N=C(c1cccc(NC(=O)Nc3cccc(C(F)(F)F)c3)c1)CCN2  6.10
9. Nc1ncnc2c1N=C(c1ccc(NC(=O)Nc3cccc(C(F)(F)F)c3F)cc1)CCN2  5.82
10. Nc1ncnc2c1N=C(c1ccc(NC(=O)Nc3ccc(C(F)(F)F)cc3)cc1)CCN2  5.61

Molecular target: T2, Receptor-type tyrosine-protein kinase FLT3 (Homo sapiens, UniProt P36888)
T2 sequence (P36888 whole entry): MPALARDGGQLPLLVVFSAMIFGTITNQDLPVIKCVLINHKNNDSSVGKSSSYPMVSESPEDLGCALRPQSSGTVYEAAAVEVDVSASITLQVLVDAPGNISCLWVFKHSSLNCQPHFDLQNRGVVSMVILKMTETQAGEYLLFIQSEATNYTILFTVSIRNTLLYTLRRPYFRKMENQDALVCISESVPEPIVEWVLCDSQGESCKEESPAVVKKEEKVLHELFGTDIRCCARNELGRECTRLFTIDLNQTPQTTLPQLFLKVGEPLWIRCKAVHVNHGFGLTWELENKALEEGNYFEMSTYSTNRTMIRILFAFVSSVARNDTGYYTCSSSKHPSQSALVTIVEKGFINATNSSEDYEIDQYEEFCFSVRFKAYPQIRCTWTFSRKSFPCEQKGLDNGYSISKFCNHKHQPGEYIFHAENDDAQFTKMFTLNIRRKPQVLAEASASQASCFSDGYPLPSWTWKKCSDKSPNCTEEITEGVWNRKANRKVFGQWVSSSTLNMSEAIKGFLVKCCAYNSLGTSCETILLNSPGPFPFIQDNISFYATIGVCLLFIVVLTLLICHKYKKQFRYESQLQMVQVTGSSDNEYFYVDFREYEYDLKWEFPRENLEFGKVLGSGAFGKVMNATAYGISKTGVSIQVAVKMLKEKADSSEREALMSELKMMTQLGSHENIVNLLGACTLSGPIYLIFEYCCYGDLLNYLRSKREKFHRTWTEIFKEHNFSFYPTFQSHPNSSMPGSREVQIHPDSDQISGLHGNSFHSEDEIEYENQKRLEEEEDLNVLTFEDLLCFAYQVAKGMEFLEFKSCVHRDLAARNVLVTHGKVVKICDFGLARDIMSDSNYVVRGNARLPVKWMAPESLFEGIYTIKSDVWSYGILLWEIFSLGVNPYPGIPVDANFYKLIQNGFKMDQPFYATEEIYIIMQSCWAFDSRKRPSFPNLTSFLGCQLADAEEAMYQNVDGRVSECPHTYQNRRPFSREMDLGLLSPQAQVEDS
Assay: Inhibition of Flt3

In order of falling pIC50:
1. Nc1ncnc2c1N=C(c1ccc(NC(=O)Nc3cccc(C(F)(F)F)c3)cc1)CCN2  8.70
2. Nc1ncnc2c1N=C(c1ccc(NC(=O)Nc3cccc(C(F)(F)F)c3F)cc1)CCN2  8.52
3. Nc1ncnc2c1N=C(c1ccc(NC(=O)Nc3cccc(Cl)c3)cc1)CCN2  8.22
4. Nc1ncnc2c1N=C(c1ccc(NC(=O)Nc3ccc(F)c(C(F)(F)F)c3)cc1)CCN2  8.15
5. Nc1ncnc2c1N=C(c1ccc(NC(=O)Nc3ccc(C(F)(F)F)cc3)cc1)CCN2  8.05
6. Cc1ccc(F)c(NC(=O)Nc2ccc(C3=Nc4c(N)ncnc4NCC3)cc2)c1  7.89
7. Nc1ncnc2c1N=C(c1ccc(NC(=O)Nc3ccc(Cl)c(C(F)(F)F)c3)cc1)CCN2  7.80
8. Nc1ncnc2c1N=C(c1cccc(NC(=O)Nc3ccccc3)c1)CCN2  5.57
9. Nc1nc(N)c2c(n1)NCCC(c1ccc(NC(=O)Nc3ccccc3)cc1)=N2  5.54

Molecular target: Mast/stem cell growth factor receptor Kit (Homo sapiens, UniProt P10721)
Assay: Inhibition of cKit

Compared with Nc1ncnc2c1N=C(c1ccc(NC(=O)Nc3cccc(Cl)c3)cc1)CCN2, Nc1ncnc2c1N=C(c1ccc(NC(=O)Nc3ccc(Cl)c(C(F)(F)F)c3)cc1)CCN2 is 0.44 log units lower in pIC50: 7.74 for the first, 7.30 for the second. The first is the more potent here.

Compared with Nc1ncnc2c1N=C(c1ccc(NC(=O)Nc3ccc(C(F)(F)F)cc3)cc1)CCN2, Nc1ncnc2c1N=C(c1ccc(NC(=O)Nc3ccc(F)c(C(F)(F)F)c3)cc1)CCN2 is 0.20 log units higher in pIC50: 7.46 for the first, 7.66 for the second. The second is the more potent here.

Nc1ncnc2c1N=C(c1ccc(NC(=O)Nc3cccc(C(F)(F)F)c3F)cc1)CCN2 and Cc1ccc(F)c(NC(=O)Nc2ccc(C3=Nc4c(N)ncnc4NCC3)cc2)c1 are within 0.2 log units of each other in pIC50: 7.55 for the first, 7.43 for the second.

Compared with Nc1ncnc2c1N=C(c1cccc(NC(=O)Nc3ccccc3)c1)CCN2, Nc1ncnc2c1N=C(c1cccc(NC(=O)Nc3cccc(C(F)(F)F)c3)c1)CCN2 is 1.52 log units higher in pIC50: 5.52 for the first, 7.04 for the second.

Compared with Cc1ccc(C2=Nc3c(N)ncnc3NCC2)cc1NC(=O)Nc1cccc(C(F)(F)F)c1, Nc1nc(N)c2c(n1)NCCC(c1ccc(NC(=O)Nc3ccccc3)cc1)=N2 is lower in pIC50: 7.92 for the first, less than 4.89 for the second.
